Measured values reported in US20260240865A1, “HARNESSING IKZF:BETA-CATENIN COMPLEXES IN THE TREATMENT OF LYMPHOCYTE ASSOCIATED DISEASES OR CONDITIONS” (Yale University, priority 2022, published 2026).

B1: β-catenin (Ctnnb1), mouse (other, UniProt Q02248 2-781, looked up)
chain: ATQADLMELDMAMEPDRKAAVSHWQQQSYLDSGIHSGATTTAPSLSGKGNPEEEDVDTSQVLYEWEQGFSQSFTQEQVADIDGQYAMTRAQRVRAAMFPETLDEGMQIPSTQFDAAHPTNVQRLAEPSQMLKHAVVNLINYQDDAELATRAIPELTKLLNDEDQVVVNKAAVMVHQLSKKEASRHAIMRSPQMVSAIVRTMQNTNDVETARCTAGTLHNLSHHREGLLAIFKSGGIPALVKMLGSPVDSVLFYAITTLHNLLLHQEGAKMAVRLAGGLQKMVALLNKTNVKFLAITTDCLQILAYGNQESKLIILASGGPQALVNIMRTYTYEKLLWTTSRVLKVLSVCSSNKPAIVEAGGMQALGLHLTDPSQRLVQNCLWTLRNLSDAATKQEGMEGLLGTLVQLLGSDDINVVTCAAGILSNLTCNNYKNKMMVCQVGGIEALVRTVLRAGDREDITEPAICALRHLTSRHQEAEMAQNAVRLHYGLPVVVKLLHPPSHWPLIKATVGLIRNLALCPANHAPLREQGAIPRLVQLLVRAHQDTQRRTSMGGTQQQFVEGVRMEEIVEGCTGALHILARDVHNRIVIRGLNTIPLFVQLLYSPIENIQRVAAGVLCELAQDKEAAEAIEAEGATAPLTELLHSRNEGVATYAAAVLFRMSEDKPQDYKKRLSVELTSSLFRTEPMAWNETADLGLDIGAQGEALGYRQDDPSYRSFHSGGYGQDALGMDPMMEHEMGGHHPGADYPVDGLPDLGHAQDLMDGLPPGDSNQLAWFDTDL
notes: Protein from lysates of BCR-ABL1-transformed Ctnnb1^ex3fl/+ murine B-ALL cells, immunoprecipitated with antibody 14/β-catenin; After Cre-ER^T2/4-OHT one allele lacks exon 3 (GSK3β phosphorylation sites), so the stabilised exon-3-deleted form and the wild type are both present

What was measured:
[1] = tested on: β-catenin and MYC protein levels in B-ALL cells; experiment: Western blot of β-catenin and MYC after GSK3β inhibitor treatment; format: cell-based, human; settings: for β-catenin accumulation and MYC suppression: B-ALL (PDX2) cells, 16 hours, FIGS. 7A, 7C, 18C
Protocol: Cells were washed twice with ice-cold PBS and were lysed in CelLytic buffer (Sigma-Aldrich) supplemented with 1% protease inhibitor cocktail (Roche Diagnostics), 1% phosphatase inhibitor cocktail (EMD Millipore) and 1 mM PMSF (CST) on ice. 10-20 μg of cell lysates were separated on precast gels (Bio-Rad) and transferred on nitrocellulose membranes (Bio-Rad). After blocking for an hour in TBS-T with 2% BSA, membranes were probed with the appropriate primary antibodies listed in Table 6. Membranes were incubated with alkaline-phosphatase conjugated secondary antibodies (Invitrogen) and analyzed with Chemi Doc™ MP Imaging System (Bio-Rad). For fractionation experiment Nuclear and Cytoplasmic Extraction Reagent (Thermo Scientific) was used according to manufacturer's instructions.

[2] = tested on: B-cell lymphoma cell lines; experiment: Drug responses (AUC) to CHIR99021 across B-cell lymphoma cell lines; format: cell-based, human; settings: 84 B-cell lymphoma cell lines; 8q24+ n=31, 8q24- n=53; P=5.2E-07
Excerpt: In some embodiments, the IC50 can be calculated by using the Broad Repurposing Library and the PRISM multiplexed cell-line viability assay. Any assay or technique known in the art can be used for the calculation of the IC50 for the purposed of the present invention. The mutation data for CTNNB1, APC, AXIN1, AXIN2 and GSK3β genes were acquired from https://cancer.sanger.ac.uk/cosmic. The data for RIC staining of β-catenin was obtained from https://www.proteinatlas.org/. The RNA-seq data and mass spectrometry data for β-catenin and IKZF1 in human cancer cell lines were obtained from depmap.org/portal/download/. Data for drug-response of solid tumor cell lines to were acquired from depmap.org/portal/download/. Hallmark Myc-Targets V1 and Hallmark Myc-Targets V2 gene sets were acquired from MSigDB. RNA-seq data was deposited to GEO with the accession number GSE196767 and ChIP-seq data was deposited to GEO with accession number GSE196745. All other data are available from the corresponding author upon reasonable request.

[3] = cited from earlier work; for Outcome: clinical responses / Outcome: safety: Phase 1 and 2; for Outcome: MTD: i.v.; for safety and tolerability / PK/PD profile in clinical trials: micromolar plasma concentrations (Cmax)
[4] = tested on: B-lymphoid leukemia and lymphoma cells; experiment: Cell viability assay (Cell Titer Glo 2.0) with GSK3β inhibitors; format: cell-based, human; settings: B-lymphoid vs myeloid and epithelial cells (PDX2, BV173, LAX2 vs THP1, SW620, H82); 3 days
Protocol: Forty thousand patient-derived pre-B ALL cells or twenty thousand leukemia/lymphoma cell lines or ten thousand colon/lung cancer cells were seed in a volume of 80 μl in complete growth medium on 96-well plate. GSK3β3 inhibitors were added at the indicated concentration in a total volume of 100 μl. After treatment for 3 days, Cell Titer Glo 2.0 assays (Promega) were performed according to the manufacturer's instructions. Relative viability was calculated by measuring the luminescence value and normalizing it to baseline values of untreated cells.
Data are shown as mean±s.d. unless stated. Statistical analysis was performed by GraphPad Prism 7 (GraphPad Software Inc.) using unpaired two-tailed t test or log-rank test as indicated in figure legends. Significance was considered at P<0.05. Kaplan-Meier survival analysis was used to estimate OS with GraphPad Prism 7. The investigators were not blinded to allocation during experiments and outcome assessment. Experiments were repeated to ensure reproducibility of the observations.

[5] = tested on: Human B-ALL xenograft cells (SFO5); experiment: Colony formation assay of B-ALL xenograft cells; format: cell-based; settings: SFO5, lenalidomide 0.5 μM for 2 days
Protocol: For colony forming assays, 10,000 mouse BCR-ABL1 or NRAS^G12D were grown on MethoCult medium (M3231 or M3630 (with IL-7) respectively, StemCell Technologies) in 3-cm diameter dishes with an extra dish filled with water to prevent evaporation. Colony forming assays with human leukemia/lymphoma cell lines were performed by plating 10,000 cells on MethoCult medium without human cytokines (H4230). For mouse pre-B cells 50.000 cells were grown on MethoCult medium with IL-7 (M3630). For colony forming assays assessing mouse myeloid progenitors, 10,000 cells were grown on MethoCult medium with mouse SCF, IL-3, IL-6, EPO (M3434). For human cord-blood derived colonies, 1000 CD34^+ HSCs were plated on MethoCult medium with recombinant human SCF, IL-3, IL-6, EPO, G-CSF, GM-CSF (H4435). For all colony forming experiments, colonies were imaged and counted using GelCount (Oxford Optronix) and 7-14 days after plating.

Stat5, mouse = target: T1, Stat5, mouse (mouse, UniProt Q9JIA0 1-793); experiment: co-IP with anti-β-catenin antibody and Western blot, murine B-ALL cells (FIG. 4B)
T1 sequence: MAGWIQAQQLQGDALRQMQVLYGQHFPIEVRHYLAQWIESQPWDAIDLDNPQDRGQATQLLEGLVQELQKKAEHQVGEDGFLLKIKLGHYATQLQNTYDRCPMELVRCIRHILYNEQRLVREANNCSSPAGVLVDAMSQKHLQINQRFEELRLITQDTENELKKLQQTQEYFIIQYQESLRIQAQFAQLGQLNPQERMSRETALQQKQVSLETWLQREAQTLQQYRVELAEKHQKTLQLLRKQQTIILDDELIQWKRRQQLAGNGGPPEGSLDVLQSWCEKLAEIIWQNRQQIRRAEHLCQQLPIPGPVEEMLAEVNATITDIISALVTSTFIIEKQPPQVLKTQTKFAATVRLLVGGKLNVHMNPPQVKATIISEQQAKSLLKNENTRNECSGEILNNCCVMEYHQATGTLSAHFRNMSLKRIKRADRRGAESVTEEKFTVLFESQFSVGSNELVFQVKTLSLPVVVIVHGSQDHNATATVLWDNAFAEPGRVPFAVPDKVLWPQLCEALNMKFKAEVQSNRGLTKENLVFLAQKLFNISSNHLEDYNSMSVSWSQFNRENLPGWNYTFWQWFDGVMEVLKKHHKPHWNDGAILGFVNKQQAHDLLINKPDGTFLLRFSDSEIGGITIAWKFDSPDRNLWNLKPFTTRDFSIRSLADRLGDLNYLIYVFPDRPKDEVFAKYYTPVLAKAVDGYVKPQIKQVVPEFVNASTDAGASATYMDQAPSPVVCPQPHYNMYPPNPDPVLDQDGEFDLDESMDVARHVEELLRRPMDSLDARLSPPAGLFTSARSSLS
Protocol: Co-immunoprecipitation experiments were performed using Pierce Crosslink Magnetic IP/Co-IP kit according to manufacturer's instructions (Thermo Scientific).

Row | Molecule | β-catenin accumulation and MYC suppression [1] | Outcome: clinical responses [3] | safety and tolerability / PK/PD profile in clinical trials [3] | selective cell death / drug response [4] | also measured
1 | Cc1c[nH]c(-c2cnc(NCCNc3ccc(C#N)cn3)nc2-c2ccc(Cl)cc2Cl)n1 [CHIR99021, Laduviglusib] | induced massive accumulation of β-catenin in parallel with acute suppression of MYC | No clinical responses | demonstrated safety and tolerability at micromolar plasma concentrations | – | sensitivity of B-cell lymphoma cell lines with MYC-rearrangement (8q24+) vs without [2]: substantially less sensitive; Outcome: MTD [3]: 80 mg
2 | O=c1sn(-c2cccc3ccccc23)c(=O)n1Cc1ccccc1 [Tideglusib] | failure to induce β-catenin accumulation and MYC-suppression | No clinical responses | demonstrated safety and tolerability at micromolar plasma concentrations | no significant activity in any cell type | Outcome: safety [3]: Phase 1 and 2, favorable safety; Outcome: MTD [3]: 120 mg
3 | N#Cc1ccc2[nH]c(O)c(-c3ccc(CN4CCOCC4)cn3)c2c1 [AZD1080] | – | – | demonstrated safety and tolerability at micromolar plasma concentrations | – | –
4 | Nc1cccc2c1CN(C1CCC(=O)NC1=O)C2=O (stereo not drawn) [lenalidomide] | – | – | – | – | MYC expression under β-catenin accumulation ([1]; SFO5 cells, lenalidomide 0.5 μM with LY2090314 20 nM): relieved β-catenin-induced transcriptional repression of MYC; colony formation under β-catenin accumulation [5]: relieved β-catenin-induced transcriptional repression of MYC and suppression of colony formation
5 | O=C1Nc2cc(Br)ccc2/C1=C1/Nc2ccccc2/C1=N\O [6-Bromoindirubin-3′-oxime] | induced massive accumulation of β-catenin in parallel with acute suppression of MYC | – | – | induced cell death at low nanomolar concentrations selectively in B-lymphoid but not myeloid and epithelial cells | –
6 | CHIR98014 | induced massive accumulation of β-catenin in parallel with acute suppression of MYC | – | – | induced cell death at low nanomolar concentrations selectively in B-lymphoid but not myeloid and epithelial cells | –
7 | Cn1cc(C2=C(c3coc4ccc(F)cc34)C(=O)NC2=O)c2cc3c(cc21)OCO3 [9-ING-41, Elraglusib] | failure to induce β-catenin accumulation and MYC-suppression | No clinical response | demonstrated safety and tolerability at micromolar plasma concentrations | broad non-specific toxicity across all cell types tested | Outcome: safety [3]: Phase 1 and 2, favorable safety
8 | B1 | – | – | – | – | binding result (Stat5, mouse): no binding
